Measurements reported in paper PMC3636857, “Specific Activation of the G Protein-coupled Receptor BNGR-A21 by the Neuropeptide Corazonin from the Silkworm, Bombyx mori, Dually Couples to the Gq and Gs Signaling Cascades” (The Journal of Biological Chemistry, 2013).
“Also recorded” adds a separate entry of the source. Numbered stars: 1 amine (or outer) side, 2 acyl side, 3 side chain; on linkers, the order of the positions; unused ones are H or OH. Bridge positions count the residues as written; N and C are the ends. Square brackets hold non-standard residues; d marks the D form. Ends that are not written are not given here. Peptide text beside a SMILES is read from it. X1 = CC(=O)NC(C(=O)OC(C(C)C)C(N[*:1])C(=O)[*:2])C(O)C(C)C; rhodamine red = Rhodamine red fluorescent dye; PhLac = O=C(O)[CH](O)Cc1ccccc1; NMeT = CN[CH](C(=O)O)[CH](C)O; NMeA = CN[CH](C)C(=O)O; NMeDha = C=C(NC)C(=O)O

Experiments:
BNGR-A21 (BmCrzR) [1] = type: cell-based, Bombyx mori
BNGR-A21 (BmCrzR) [2] = experiment: intracellular calcium measurement (fura-2) in HEK293 cells; type: cell-based, Bombyx mori; settings: pretreatment with YM-254890 1 μM, U73122 10 μM, EGTA 5 mM, BAPTA-AM 50 μM or nifedipine 10 μM, corazonin (1 μM with YM-254890)
Experimental: (§1) The stable FLAG-A21- and BmFlag-A21-expressing HEK293 and Sf21 cells were washed twice with phosphate-buffered saline and resuspended at 5 × 10^6 cells/ml in Hanks' balanced salt solution. The cells were detached by a Nonenzymatic Cell Dissociation Solution (M&C Gene Technology, China) or 0.02% EGTA and then loaded with 3 μM Fura 2-AM (Dojindo Laboratories, Japan) for 30 min at 37 °C. Cells were washed twice in Hanks' solution and then resuspended in Hanks' solution at a concentration of 3 × 10^7 cells/ml. Calcium flux was measured using excitation wavelengths of 340 and 380 nm in a fluorescence spectrometer (Tecan Infinite 200 PRO, Switzerland).
(§2) FIGURE 4. Intracellular Ca^2+ influx. HEK293 (A) and Sf21 (B) cells, respectively, transfected with FLAG-A21 and BmFlag-A21 were measured in response to different concentrations of corazonin peptide using the fluorescent Ca^2+ indicator fura-2. C, effect of pretreatment of the Gq inhibitor on corazonin (1 μM)-mediated Ca^2+ influx in HEK293 cells. D, effects of pretreatment of calcium chelators (EGTA, 5 mM, and BAPTA-AM, 50 μM) and L-calcium channel (nefidipine, 10 μM) inhibitors on corazonin-mediated Ca^2+ influx in HEK293 cells. Effect of pretreatment of PLC inhibitor (U73122, 10 μM) on corazonin-mediated Ca^2+ influx in HEK293 (E) and Sf21 (F) cells. The figures are representative of more than three independent experiments.

BNGR-A21 (BmCrzR) [3] = experiment: intracellular calcium measurement (fura-2) in Sf21 cells; type: cell-based, Bombyx mori; settings: pretreatment with U73122 10 μM
Experimental: as §1, §2

BmCrzR (BNGR-A21) [4] = experiment: ERK1/2 activation assay in HEK293 cells stably expressing BmCrzR; type: cell-based, Bombyx mori; settings: HEK293 cells stably transfected with BmCrzR; 1 h pretreatment (H89 10 μM, Go6983 10 μM, U0126 1 μM), then corazonin 1 nM, 5 min
[5] = target: Bombyx neuropeptide G protein-coupled receptor A21 (BNGR-A21), N-terminal FLAG tag (Bombyx mori) (UniProt B3XXN4)
[6] = target: Bombyx neuropeptide G protein-coupled receptor A21 (BNGR-A21), N-terminal FLAG tag (Bombyx mori) (UniProt B3XXN4); remark: listed apart in the source
[7] = target: Bombyx neuropeptide G protein-coupled receptor A21 (BNGR-A21), N-terminal FLAG tag (Bombyx mori) (UniProt B3XXN4); experiment: fluorescent ligand competition binding on whole cells; HEK293 cells stably expressing FLAG-A21 in poly-D-lysine-coated 96-well plates; labeled ligand (Rho-[Lys^4]BmCrz) with buffer or unlabeled ligand in PBS with 0.2% BSA, room temperature 90 min, washed with ice-cold PBS with 0.1% BSA; fluorescence intensity as percentage of total binding
BmCrzR (BNGR-A21) [8] = experiment: CRE-driven luciferase assay of rhodamine-labeled corazonin; type: cell-based, Bombyx mori; settings: Fig. 5A; CRE-driven luciferase system; rhodamine red-labeled peptide; read-out: activation of BmCrzR (CRE-driven luciferase), EC50
Experimental: After seeding in a 48-well plate overnight, HEK293 or Sf21 cells transiently or stably cotransfected with BNGR-A21 and pCRE-Luc were grown to 90–95% confluence, stimulated with the corazonin peptides in DMEM without FBS, and incubated for 4–6 h at 37 °C. Luciferase activity was detected by a firefly luciferase assay kit (KenReal, Shanghai, China). The cAMP concentration was assessed using a commercially available cAMP detection kit (R&D Systems).
All results are expressed as the mean ± S.E. Data were analyzed using nonlinear curve fitting (GraphPad Prism version 5.0) to obtain EC50 values. Statistical significance was determined using Student's t test. Probability values that were less than or equal to 0.05 were considered significant.
FIGURE 5. Direct interaction of BNGR-A21 with corazonin. A, rhodamine red-labeled [Lys^4]corazonin activity was assayed using the CRE-driven luciferase system. B, binding of Rho-[Lys^4]BmCrz to BNGR-A21 expressed in HEK293 cells was measured in the presence of different concentrations of unlabeled peptides or in the absence of unlabeled peptides (total binding). The extent of binding was determined by fluorescence intensity and is presented as a percentage of the total binding. The results represent the mean ± S.D. (n = 3).

[9] = target: Bombyx neuropeptide G protein-coupled receptor A21 (BNGR-A21), N-terminal FLAG tag (Bombyx mori) (UniProt B3XXN4); remark: listed apart in the source
CrzR in A. gambiae = system: CrzR in A. gambiae; set-up: method as in PMID 16616003; settings: cited from earlier work

Chain of Bombyx neuropeptide G protein-coupled receptor A21 (BNGR-A21), N-terminal FLAG tag (Bombyx mori) (B3XXN4 entry or part of it): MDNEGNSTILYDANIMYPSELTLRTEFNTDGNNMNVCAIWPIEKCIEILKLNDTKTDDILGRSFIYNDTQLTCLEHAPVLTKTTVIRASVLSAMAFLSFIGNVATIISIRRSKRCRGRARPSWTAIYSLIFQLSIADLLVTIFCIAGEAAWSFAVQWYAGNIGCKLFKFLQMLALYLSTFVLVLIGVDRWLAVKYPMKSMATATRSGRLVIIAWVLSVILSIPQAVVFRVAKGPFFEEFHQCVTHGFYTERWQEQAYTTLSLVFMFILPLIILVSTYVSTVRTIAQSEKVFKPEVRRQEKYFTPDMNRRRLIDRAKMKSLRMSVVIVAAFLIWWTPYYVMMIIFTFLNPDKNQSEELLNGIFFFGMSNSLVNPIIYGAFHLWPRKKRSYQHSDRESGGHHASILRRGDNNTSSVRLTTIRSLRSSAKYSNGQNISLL

COc1ccc2c(c1)CC[C@@H]1[C@@H]2CC[C@]2(C)[C@@H](NCCCCCCN3C(=O)C=CC3=O)CC[C@@H]12 [U73122]
inhibition of BmCrz-induced luciferase activity (BNGR-A21 (BmCrzR) [1]): significantly inhibited | effect of inhibitor on corazonin-mediated Ca^2+ mobilization (BNGR-A21 (BmCrzR) [2]): sensitive; also recorded: significantly blocked | effect of inhibitor on corazonin-mediated Ca^2+ mobilization (BNGR-A21 (BmCrzR) [3]): sensitive

O=S(=O)(NCCNC/C=C/c1ccc(Br)cc1)c1cccc2cnccc12 [H89]
inhibition of BmCrz-induced luciferase activity (BNGR-A21 (BmCrzR) [1]): significantly inhibited; also recorded: sensitive | block of BmCrzR-mediated activation of ERK1/2 (BmCrzR (BNGR-A21) [4]): significantly blocked; also recorded: significantly inhibited

Bombyx mori corazonin ([Arg^7]corazonin) (peptide)
CRE-driven luciferase reporter (cAMP accumulation), dose response to corazonin, HEK293 cells co-transfected with FLAG-A21/CRE-Luc; EC50 [5]: 4.5 nM | CRE-driven luciferase reporter (cAMP accumulation), dose response to corazonin, Sf21 cells co-transfected with FLAG-A21/CRE-Luc; EC50 [5]: 1 nM | ERK1/2 phosphorylation (Western blot), dose response to corazonin, HEK293 cells stably expressing BmCrzR; EC50 [6]: 1.4 nM | ERK1/2 phosphorylation (Western blot), dose response to corazonin, Sf21 cells expressing BmCrzR; EC50 [6]: 4.7 nM | IC50 [7]: 0.49 nM

pertussis toxin [PTX]
effect of pretreatment on corazonin-stimulated cAMP generation (BNGR-A21 (BmCrzR) [1]): no effect on cAMP generation; also recorded: PTX-insensitive

Rho-[Lys^4]BmCrz: Q4K peptide conjugated with rhodamine red at the Lys residue (QTFK(rhodamine red)YSRGWTN; ends and bridges not checked; UniProt Q86N75 20-30, looked up, variant Q4K)
EC50 (BmCrzR (BNGR-A21) [8]): 86.1 nM

Rhodamine red-labeled [Lys^4]BmCrz (peptide)
CRE-driven luciferase reporter; EC50 [9]: 86.1 nM

C=C1C(=O)NC(C)C(=O)N(C)C(C)C(=O)NC(C(OC(=O)C(NC(C)=O)C(O)C(C)C)C(C)C)C(=O)N(C)C(C(C)OC)C(=O)OC(C)C(NC(C)=O)C(=O)OC(Cc2ccccc2)C(=O)N1C (centres unmarked) [YM-254890] (Ac-T[PhLac][NMeDha]A[NMeA][X1][NMeT](Me); ester 1-C; configuration not given here)
inhibition of BmCrz-induced luciferase activity (BNGR-A21 (BmCrzR) [1]): significantly inhibited; also recorded: sensitive | effect of inhibitor on corazonin-mediated Ca^2+ mobilization (BNGR-A21 (BmCrzR) [2]): significant decrease in the intracellular Ca^2+ mobilization; also recorded: significantly blocked

endogenous corazonin: endogenous corazonin of A. gambiae (ref 22) (QTFQYSRGWTN; ends and bridges not checked; UniProt A0NDK8 21-31, looked up)
selectivity of A. gambiae CrzR activation (CrzR in A. gambiae): only be activated by its endogenous corazonin | EC50 (CrzR in A. gambiae; read-out: activation of A. gambiae CrzR (cAMP accumulation), EC50): 4 nM

N#CC(=C(/N)Sc1ccccc1N)/C(C#N)=C(/N)Sc1ccccc1N [U0126]
block of BmCrzR-mediated activation of ERK1/2 (BmCrzR (BNGR-A21) [4]): significantly blocked; also recorded: significantly inhibited

cholera toxin [CTX]
effect of stimulation with CTX on cellular levels of cAMP (BNGR-A21 (BmCrzR) [1]): remarkable increase in the cellular levels of cAMP

COC(=O)C1=C(C)NC(C)=C(C(=O)OC)C1c1ccccc1[N+](=O)[O-] [nifedipine]
effect of inhibitor on corazonin-mediated Ca^2+ mobilization (BNGR-A21 (BmCrzR) [2]): sensitive; also recorded: partially impaired

COc1ccc2c(c1)c(C1=C(c3c[nH]c4ccccc34)C(=O)NC1=O)cn2CCCN(C)C [Go6983]
inhibition of BmCrz-induced luciferase activity (BNGR-A21 (BmCrzR) [1]): significantly inhibited | block of BmCrzR-mediated activation of ERK1/2 (BmCrzR (BNGR-A21) [4]): significantly blocked; also recorded: significantly inhibited

O=C(O)CN(CCOCCOCCN(CC(=O)O)CC(=O)O)CC(=O)O [EGTA]
inhibition of BmCrz-induced luciferase activity (BNGR-A21 (BmCrzR) [1]): significantly inhibited | effect of inhibitor on corazonin-mediated Ca^2+ mobilization (BNGR-A21 (BmCrzR) [2]): sensitive; also recorded: partially impaired

CC(=O)OCOC(=O)CN(CC(=O)OCOC(C)=O)c1ccccc1OCCOc1ccccc1N(CC(=O)OCOC(C)=O)CC(=O)OCOC(C)=O [BAPTA-AM]
inhibition of BmCrz-induced luciferase activity (BNGR-A21 (BmCrzR) [1]): significantly inhibited | effect of inhibitor on corazonin-mediated Ca^2+ mobilization (BNGR-A21 (BmCrzR) [2]): sensitive; also recorded: partially impaired
